The values below come from patent US20130012546A1 (priority 2009, published 2013).

The data set is described as follows: logP(HCOOH) by HPLC. The class given is physicochemical.
The mark [1] stands for this setting: HPLC on reversed phase columns, pH 2.7, 0.1% formic acid in water / acetonitrile, linear gradient 10% to 95% acetonitrile, EEC directive 79/831 Annex V.A8.

Where two headings read alike, the source gives them in different places.

Consider `CON=C(C(=O)Nc1nc(CON=C(c2ccccc2)n2nnnc2C)cs1)c1ccc(Br)cc1` [Example 29], for which the log p under setting [1] was found to be 4.41.
The compound `CON=C(C(=O)Nc1nc(CON=C(c2ccccc2)n2nnnc2C)cs1)c1cccc(Cl)c1Cl` [Example 30] had a log p under setting [1] of 4.32.
Still for that read-out and setting: under `CC(=NOCC(=O)Nc1cccc(CON=C(c2ccccc2)c2nnnn2C)n1)C(C)(C)C` [Example 31] stands 4.23.
In turn, `C#CCOCC(=O)Nc1nc(CO/N=C(/c2ccccc2)n2nnnc2C)cs1` [Example 49] had a log p under setting [1] of 2.69.
As to `Cn1nnnc1/C(=N\OCc1cccc(NC(=O)OC2CC3CCC2(C)C3(C)C)n1)c1ccccc1` (stereo not shown) [Example 55], the log p under setting [1] turned out to be 5.32.
On to `Cn1nnnc1/C(=N\OCc1cccc(NC(=O)OCC2CCCCC2)n1)c1ccccc1` [Example 57], for which the log p under setting [1] came out at 4.72.
Consider `Cn1nnnc1/C(=N\OCc1cccc(NC(=O)OCC2CC2)n1)c1ccccc1` [Example 58], for which the log p under setting [1] was found to be 3.46.
The compound `Cn1nnnc1/C(=N\OCc1cccc(NC(=O)OCCC2CCCCC2)n1)c1ccccc1` [Example 59] displayed a log p under setting [1] of 5.11.
As to `CC(CC1CC1)OC(=O)Nc1cccc(CO/N=C(/c2ccccc2)c2nnnn2C)n1` (stereo not shown) [Example 60, 1-cyclopropylpropan-2-yl {6-[({[(Z)-(1-methyl-1H-tetrazol-5-yl)(phenyl)methylene]amino}oxy)methyl]pyridin-2-yl}carbamate], the chromatographic logP is, setting by setting: (reversed phase HPLC column, HPLC on reversed phase columns, pH 2.7, 0.1% formic acid in water / acetonitrile, linear gradient 10% to 95% acetonitrile, EEC directive 79/831 Annex V.A8, read-out: log p) 4.15; (reversed phase HPLC columns, pH 2.7, HCOOH, read-out: logP(HCOOH)) 4.15.
Under setting [1], `Cc1nnnn1C(=NOCc1csc(NC(=O)OCCCC2CCCC2)n1)c1ccccc1` [Example 65] registered a log p of 4.77.
Turning to `Cc1nnnn1C(=NOCc1csc(NC(=O)OCC2CCCC2)n1)c1ccccc1` [Example 66], under setting [1], the log p was found to be 3.99.
Take `Cc1nnnn1C(=NOCc1csc(NC(=O)OCCCC2CCCCC2)n1)c1ccccc1` [Example 67]: under setting [1], the log p is 5.11.
Still for that read-out and setting: under `Cc1nnnn1C(=NOCc1csc(NC(=O)OCCCC2CC2)n1)c1ccccc1` [Example 68] stands 3.9; under `Cn1nnnc1C(=NOCc1cccc(NC(=O)OCCCC2CCCC2)n1)c1ccccc1` [Example 69], 5.06; under `Cn1nnnc1C(=NOCc1cccc(NC(=O)OCC2CCCC2)n1)c1ccccc1` [Example 70], 4.25.
Regarding `Cn1nnnc1C(=NOCc1cccc(NC(=O)OCCCC2CCCCC2)n1)c1ccccc1` [Example 71], the log p under setting [1] is 5.45.
Regarding `Cn1nnnc1C(=NOCc1cccc(NC(=O)OCCCC2CC2)n1)c1ccccc1` [Example 72], the log p under setting [1] was 4.15.
In the case of `Cn1nnnc1C(=NOCc1csc(NC(=O)OCCCC2CCCC2)n1)c1ccccc1` [Example 73], the log p under setting [1] is 4.7.
On to `Cn1nnnc1C(=NOCc1csc(NC(=O)OCC2CCCC2)n1)c1ccccc1` [Example 74], for which, under setting [1], the log p was found to be 3.92.
The same measure, in the same setting: under `Cn1nnnc1C(=NOCc1csc(NC(=O)OCCCC2CCCCC2)n1)c1ccccc1` [Example 75] stands 5.03; under `Cn1nnnc1C(=NOCc1csc(NC(=O)OCCCC2CC2)n1)c1ccccc1` [Example 76], 3.85; under `CC(OC1CCCCCC1)C(=O)Nc1cccc(CON=C(c2ccccc2)c2nnnn2C)n1` (stereo not shown) [Example 100], 4.8.
For the compound `Cc1nnnn1C(=NOCc1csc(NC(=O)COC2CC(C)CCC2C(C)C)n1)c1ccccc1` (stereo not shown) [Example 106], the log p under setting [1] is recorded as 5.48.
Under setting [1], `Cc1nnnn1C(=NOCc1cccc(NC(=O)COC2CC(C)CCC2C(C)C)n1)c1ccccc1` (stereo not shown) [Example 108] came in with a log p of 5.95.
Still for that read-out and setting: next, `C=C(C)C(C)=CCC(C)OCC(=O)Nc1nc(CON=C(c2ccccc2)n2nnnc2C)cs1` (stereo not shown) [compound 110]: 4.56.
Consider `C=CCCCOCC(=O)Nc1nc(CON=C(c2ccccc2)n2nnnc2C)cs1` [compound 111], for which, under setting [1], the log p was 3.55.
Under setting [1], `C=CCCCOCC(=O)Nc1cccc(CON=C(c2ccccc2)n2nnnc2C)n1` [compound 112] registered a log p of 3.83.
The same measure, in the same setting: next, `C=C(C)C(C)=CCC(C)OCC(=O)Nc1cccc(CON=C(c2ccccc2)c2nnnn2C)n1` (stereo not shown) [compound 113]: 4.73; `C#CCOC(C(=O)Nc1nc(CON=C(c2ccccc2)n2nnnc2C)cs1)C(C)C` (stereo not shown) [compound 114]: 3.46.
For the compound `C#CCOC(CC)C(=O)Nc1nc(CON=C(c2ccccc2)n2nnnc2C)cs1` (stereo not shown) [compound 115], the log p under setting [1] is on record as 3.11.
Turning to `C#CCOC(CC)C(=O)Nc1nc(CON=C(c2ccccc2)c2nnnn2C)cs1` (stereo not shown) [compound 116], under setting [1], the log p worked out at 3.08.
Regarding `C#CCOC(C(=O)Nc1nc(CON=C(c2ccccc2)c2nnnn2C)cs1)C(C)C` (stereo not shown) [compound 117], the log p under setting [1] stood at 3.44.
Under setting [1], `Cn1nnnc1C(=NOCc1csc(NC(=O)COCC#C[Si](C)(C)C)n1)c1ccccc1` [compound 118] had a log p of 3.7.
Regarding `C#CCOC(CC)C(=O)Nc1cccc(CON=C(c2ccccc2)n2nnnc2C)n1` (stereo not shown) [compound 119], the log p under setting [1] was 3.33.
`C#CCOC(C(=O)Nc1cccc(CON=C(c2ccccc2)n2nnnc2C)n1)C(C)C` (stereo not shown) [compound 120] gave a log p under setting [1] of 3.7.
Still for that read-out and setting: under `C#CCOC(CC)C(=O)Nc1cccc(CON=C(c2ccccc2)c2nnnn2C)n1` (stereo not shown) [compound 121] stands 3.27.
Consider `C#CCOC(C(=O)Nc1cccc(CON=C(c2ccccc2)c2nnnn2C)n1)C(C)C` (stereo not shown) [compound 122], for which the log p under setting [1] was 3.63.
`CCON=C(C(=O)Nc1nc(CON=C(c2ccccc2)n2nnnc2C)cs1)c1ccc(Cl)cc1` [compound 123] yielded a log p under setting [1] of 4.61.
In turn, `CON=C(C(=O)Nc1nc(CON=C(c2ccccc2)n2nnnc2C)cs1)c1ccc(C)cc1` [compound 124] displayed a log p under setting [1] of 4.13.
On to `CON=C(C(=O)Nc1nc(CON=C(c2ccccc2)n2nnnc2C)cs1)c1ccc(C)cc1` [compound 125], for which the log p under setting [1] amounted to 3.85.
Under setting [1], `CCON=C(C(=O)Nc1nc(CON=C(c2ccccc2)n2nnnc2C)cs1)c1ccc(C)cc1` [compound 126] came in with a log p of 4.13.
Still for that read-out and setting: under `CCON=C(C(=O)Nc1nc(CON=C(c2ccccc2)n2nnnc2C)cs1)c1ccc(C)cc1` [compound 127] stands 4.49; under `CCON=C(C(=O)Nc1nc(CON=C(c2ccccc2)c2nnnn2C)cs1)c1ccc(Cl)cc1` [compound 128], 4.56; under `CON=C(C(=O)Nc1nc(CON=C(c2ccccc2)c2nnnn2C)cs1)c1ccc(C)cc1` [compound 129], 4.05.
As to `CON=C(C(=O)Nc1nc(CON=C(c2ccccc2)c2nnnn2C)cs1)c1ccc(C)cc1` [compound 130], under setting [1], the log p was 3.79.
As to `CON=C(C(=O)Nc1cccc(CON=C(c2ccccc2)n2nnnc2C)n1)c1ccccc1Cl` [compound 131], the log p under setting [1] is recorded as 4.18.
The compound `CON=C(C(=O)Nc1cccc(CON=C(c2ccccc2)n2nnnc2C)n1)c1ccc(Cl)cc1` [compound 132] returned a log p under setting [1] of 4.69.
`CCON=C(C(=O)Nc1cccc(CON=C(c2ccccc2)n2nnnc2C)n1)c1ccc(Cl)cc1` [compound 133]: under setting [1], the log p was found to be 4.93.
In the case of `CON=C(C(=O)Nc1cccc(CON=C(c2ccccc2)n2nnnc2C)n1)c1ccc(C)cc1` [compound 134], the log p under setting [1] stood at 4.44.
As for `CON=C(C(=O)Nc1cccc(CON=C(c2ccccc2)n2nnnc2C)n1)c1ccc(Cl)cc1` [compound 135], under setting [1], the log p is 4.51.
Take `CON=C(C(=O)Nc1cccc(CON=C(c2ccccc2)n2nnnc2C)n1)c1ccc(F)cc1` [compound 136]: the log p under setting [1] worked out at 4.11.
Same read-out and setting: next, `CCON=C(C(=O)Nc1cccc(CON=C(c2ccccc2)c2nnnn2C)n1)c1ccc(Cl)cc1` [compound 137]: 4.83; `CON=C(C(=O)Nc1cccc(CON=C(c2ccccc2)c2nnnn2C)n1)c1ccc(C)cc1` [compound 138]: 4.27; `C=C=CCCC(=O)Nc1nc(CON=C(c2ccccc2)n2nnnc2C)cs1` [compound 139]: 3.09.
On the same count and under the same terms, under `C=C=CCCCOC(=O)Nc1nc(CON=C(c2ccccc2)c2nnnn2C)cs1` [compound 140] stands 3.69; under `C=C=CCCC(=O)Nc1cccc(CON=C(c2ccccc2)n2nnnc2C)n1` [compound 141], 3.23; under `C=C=CCCCOC(=O)Nc1cccc(CON=C(c2ccccc2)n2nnnc2C)n1` [compound 142], 4.01.
Compound `Cc1nnnn1C(=NOCc1cccc(NC(=O)OC2CC3CCC2(C)C3(C)C)n1)c1ccccc1` (stereo not shown) [compound 143] came in with a log p under setting [1] of 5.3.
Compound `Cc1nnnn1C(=NOCc1csc(NC(=O)OCCC2CC2)n1)c1ccccc1` [compound 145] gave a log p under setting [1] of 3.5.
For `Cc1nnnn1C(=NOCc1csc(NC(=O)OCCC2CCCC2)n1)c1ccccc1` [compound 146], under setting [1], the log p is 4.33.
Same read-out and setting: under `Cc1nnnn1C(=NOCc1csc(NC(=O)OC(C)C2CCCCC2)n1)c1ccccc1` (stereo not shown) [compound 147] stands 4.66; under `Cc1nnnn1C(=NOCc1csc(NC(=O)OC(C)C2CCCC2)n1)c1ccccc1` (stereo not shown) [compound 148], 4.3.
Consider `Cn1nnnc1C(=NOCc1csc(NC(=O)OCCC2CC2)n1)c1ccccc1` [compound 149], for which the log p under setting [1] came to 3.46.
As for `Cn1nnnc1C(=NOCc1csc(NC(=O)OCCC2CCCC2)n1)c1ccccc1` [compound 150], the log p under setting [1] was determined as 4.26.
`CC(OC(=O)Nc1nc(CON=C(c2ccccc2)c2nnnn2C)cs1)C1CCCCC1` (stereo not shown) [compound 151] displayed a log p under setting [1] of 4.58.
In the case of `CC(OC(=O)Nc1nc(CON=C(c2ccccc2)c2nnnn2C)cs1)C1CCCC1` (stereo not shown) [compound 152], under setting [1], the log p is on record as 4.25.
On the same count and under the same terms, under `Cc1nnnn1C(=NOCc1cccc(NC(=O)OCCC2CC2)n1)c1ccccc1` [compound 155] stands 3.81; under `Cc1nnnn1C(=NOCc1cccc(NC(=O)OCCC2CCCC2)n1)c1ccccc1` [compound 156], 4.71; under `Cc1nnnn1C(=NOCc1cccc(NC(=O)OC(C)C2CCCCC2)n1)c1ccccc1` (stereo not shown) [compound 157], 5.08.
